Experimental data taken from PMC12483202, “Pharmacokinetic profile of oral firocoxib in the koala (Phascolarctos cinereus)” (PLOS One, 2025).

Assay: Single oral dose (5 mg/kg) pharmacokinetics of firocoxib in koalas, plasma HPLC, non-compartmental analysis;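 also: healthy adult koalas, three per sex, anaesthetised the day before dosing for cephalic vein catheterisation, with serial blood draws and firocoxib in plasma quantified by HPLC using fluorescence detection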
Settings: for Cmax / MRT inf / Tmax / Vd/F / k el / half-life / concentration at 2 h / concentration at 4 h / concentration at 8 h / concentration at 1 h / concentration at 0.25 h / concentration at 0.5 h / concentration at 12 h / concentration at 24 h / AUC(0-inf) / AUC(0-t): plasma, po, 5 mg/kg; for MRT inf: MRT0-inf; for Vd/F: Vz/F; for concentration at 2 h / concentration at 4 h / concentration at 8 h / concentration at 1 h / concentration at 0.25 h / concentration at 0.5 h / concentration at 12 h / concentration at 24 h: Firocoxib plasma concentration; for AUC(0-t): AUC0-t
[1] = female, K4 female, single oral 5 mg/kg
[2] = female, K5 female, single oral 5 mg/kg
[3] = female, arithmetic mean, female koalas (n = 3), single oral 5 mg/kg
[4] = female, harmonic mean, female koalas (n = 3), single oral 5 mg/kg
[5] = female, K6 female, single oral 5 mg/kg
[6] = harmonic mean, female koalas (n = 3), single oral 5 mg/kg
[7] = harmonic mean, male koalas (n = 3), single oral 5 mg/kg
[8] = harmonic mean, n = 6 koalas, single oral 5 mg/kg
[9] = male, koala (Phascolarctos cinereus), K1 male, single oral 5 mg/kg
[10] = male, koala (Phascolarctos cinereus), K2 male, single oral 5 mg/kg
[11] = male, koala (Phascolarctos cinereus), K3 male, single oral 5 mg/kg
[12] = male, koala, K1 male, single oral 5 mg/kg
[13] = male, koala, K2 male, single oral 5 mg/kg
[14] = male, koala, K3 male, single oral 5 mg/kg
[15] = male, K1 male, single oral 5 mg/kg
[16] = male, K2 male, single oral 5 mg/kg
[17] = male, K3 male, single oral 5 mg/kg
[18] = male, arithmetic mean, male koalas (n = 3), single oral 5 mg/kg
[19] = male, harmonic mean, male koalas (n = 3), single oral 5 mg/kg
[20] = median (range), n = 6 koalas, single oral 5 mg/kg

Source text: Six mature koalas (3 males, 3 females) with median (range) body weights and ages of 9.2 kg, (7.5 to 9.7 kg) and 4.8 years (4.3 to 9.1 years), respectively, were recruited from the Taronga Zoo colony (Mosman, NSW, Australia). These koalas were clinically normal based on regular physical examinations, haematological and biochemical analyte values. During the study, koalas were housed singly and supplied with various Eucalyptus spp. foliage and water ad-libitum. […] No animals were sacrificed; the animals were returned to the colony immediately after firocoxib administration and blood sampling. In order to minimise stress, intravenous catheterisation for sequential blood sampling was performed under general anaesthesia.
The day prior to drug administration and blood collection, the koalas were anaesthetised with alfaxalone (Alfaxan, Jurox, Pty Ltd, Rutherford, NSW, Australia) at 3 mg/kg administered intramuscularly (i.m.) and maintained under anaesthesia on isoflurane in 100% oxygen via a face mask for placement of a 20 gauge, 1 ¼ inch intravenous catheter into the cephalic vein. A short T-connector extension set (Codan, Santa Ana, CA, USA) and cap was attached to the catheter and flushed with saline. The extension tube, cap and catheter were secured with tape and bandage, for serial blood collection. Blood (5 mL) was collected at the time of anaesthesia in a lithium heparin tube to establish a baseline (t = 0 h).
Firocoxib was administered as a single oral dose of 5 mg/kg as crushed tablets made into a paste with Vetafarm Koala Crittacare (Wagga Wagga, NSW) and water.
Samples were centrifuged at 1500 x g for 10 minutes, within 1 h of collection; the plasma was immediately stored at –80 °C and protected from light until drug quantification. […] Clinical observations for the presence of adverse effects in the animals treated included measurement of vital signs, appetite, body weight, faecal consistency and overall behaviour and mobility.
Quantification of firocoxib and visualisation of metabolites in plasma was achieved by HPLC with fluorescence detection modified from a published method [12]. The HPLC system consisted of a Shimadzu LC-20AT solvent delivery unit, DGU-20A degasser, a SIL-20A HT auto injector, an SPD-20A UV detector and RF-10A XL fluorescence detector (Shimadzu, Rydalmere, NSW, Australia) and column oven (CTO-20A). […] Chromatographic separation was performed with a Supelco, Discovery C18, (25 cm x 4.6 mm, 5 µm) column (Merck KGaA, Darmstadt, Germany) with a 1-mm Opti-guard C18 pre-column (Choice Analytical, Thornleigh, NSW, Australia) at ambient temperature. […] Fluorescence detection excitation and emission wavelengths were 280 nm and 375 nm, respectively.
For sample preparation 200 μL of each of the following: plasma samples collected from koalas administered firocoxib, standards prepared for the standard curves and the QC samples; were extracted twice by mixing with 800 μL of ethyl acetate. The extracted organic portion (1.6 mL) was dried under vacuum in a Speed Vac Concentrator (Thermo Scientific, MA, USA) at 35 °C for 1 h, reconstituted with 100 μL of acetonitrile, and finally 10 μL of the reconstituted sample was injected into the HPLC system.
The concentration of each QC sample was repeated three times with the accuracy and precision calculated on each of the triplicates. The mean accuracy ± standard deviation (SD) were calculated using the formula [13]:
Firocoxib plasma concentrations from the initial oral administration underwent non-compartmental analysis. The peak concentration (Cmax) and the time reached (Tmax) were obtained directly from the measured concentrations. The elimination half-life (t1/2) was determined by ln2/ke where ke is the elimination rate constant which is the inverse slope of the elimination or terminal part of the semi-log curve.

Compound `CC1(C)OC(=O)C(OCC2CC2)=C1c1ccc(S(C)(=O)=O)cc1` [firocoxib] has a Cmax (female, median value, female koalas, PO 5 mg/kg) of 61.9 ng/mL, an MRT inf [1] of 8.74 h and an MRT inf [2] of 13.1 h. The MRT inf [3] was 16.1 h, the MRT inf [4] was 13.1 h and the Tmax [1] was 4 h. The Tmax [2] was 2 h, the Tmax [5] was 4 h and the Tmax [3] was 3.33 h. It also gave a Tmax [4] of 3 h, a Vd/F [1] of 202 L and a Vd/F [2] of 616 L. It also gave a Vd/F [5] of 2130 L, a Vd/F [3] of 982 L and a Vd/F [4] of 437 L. It also gave a k el (female, ke (elimination constant), K4 female, single oral 5 mg/kg, slope from 8, 12, 24 h) of 5.28e-05 s⁻¹, a k el (female, ke (elimination constant), K5 female, single oral 5 mg/kg, slope from 8, 12, 24 h) of 1.94e-05 s⁻¹ and a k el (female, ke (elimination constant), K6 female, single oral 5 mg/kg, slope from 8,12,24 h) of 2.78e-05 s⁻¹. The k el (female, ke, arithmetic mean, female koalas (n = 3), single oral 5 mg/kg) was 3.33e-05 s⁻¹, the k el (female, ke, harmonic mean, female koalas (n = 3), single oral 5 mg/kg) was 2.78e-05 s⁻¹ and the half-life (female, t1/2 (elimination half-life), K4 female, single oral 5 mg/kg) was 3.67 h. It also gave a half-life (female, t1/2 (elimination half-life), K5 female, single oral 5 mg/kg) of 9.91 h, a half-life (female, t1/2 (elimination half-life), K6 female, single oral 5 mg/kg) of 7.24 h and a half-life (female, t1/2, arithmetic mean, female koalas (n = 3), single oral 5 mg/kg) of 6.94 h. For the same compound, the half-life (female, t1/2, harmonic mean, female koalas (n = 3), single oral 5 mg/kg) was 5.87 h, the half-life (female, t1/2, median value, female koalas, PO 5 mg/kg) was 7.24 h and the “AUC 0-t/AUC0-inf” value [6] was 0.91. For the same compound, the “AUMC 0-inf” value [6] was 10875.3 ng/mL*h^2, the Cl/F [6] was 52.0 L/h and the ka [6] was 0.25 h⁻¹. The “AUC 0-t/AUC0-inf” value [7] was 0.88, the “AUMC 0-inf” value [7] was 16711.5 ng/mL*h^2 and the Cl/F [7] was 23.8 L/h. The ka [7] was 0.16 h⁻¹, the AUMC [8] was 13176.1 ng/mL*h ^ 2 and the Cl/F [8] was 32.6 L/h. The ka [8] was 0.20 h⁻¹, the concentration at 2 h [9] was 22.7 ng/mL and the concentration at 4 h [9] was 68.3 ng/mL. It also gave a concentration at 8 h [9] of 191 ng/mL, a concentration at 2 h [10] of 39.2 ng/mL and a concentration at 4 h [10] of 210 ng/mL. It also gave a concentration at 8 h [10] of 118 ng/mL, a concentration at 1 h [11] of 41.9 ng/mL and a concentration at 2 h [11] of 105 ng/mL. It also gave a concentration at 4 h [11] of 263 ng/mL, a concentration at 8 h [11] of 128 ng/mL and a concentration at 0.25 h [12] of 7.94 ng/mL. The concentration at 0.5 h [12] was 4.51 ng/mL, the concentration at 1 h [12] was 8.34 ng/mL and the concentration at 12 h [12] was 101 ng/mL. For the same compound, the concentration at 24 h [12] was 57.2 ng/mL, the concentration at 0.25 h [13] was 4.37 ng/mL and the concentration at 0.5 h [13] was 10 ng/mL. For the same compound, the concentration at 1 h [13] was 21.7 ng/mL, the concentration at 12 h [13] was 39.7 ng/mL and the concentration at 24 h [13] was 4.13 ng/mL. It also gave a concentration at 0.25 h [14] of 16.6 ng/mL, a concentration at 0.5 h [14] of 52.5 ng/mL and a concentration at 12 h [14] of 49.6 ng/mL. The concentration at 24 h [14] was 3.86 ng/mL, the AUC(0-inf) (male, AUC0-inf, K1 male, single oral 5 mg/kg) was 3000 ng·h/mL and the AUC(0-inf) (male, AUC0-inf, K2 male, single oral 5 mg/kg) was 1540 ng·h/mL. For the same compound, the AUC(0-inf) (male, AUC0-inf, K3 male, single oral 5 mg/kg) was 1950 ng·h/mL, the AUC(0-inf) (male, AUC 0-inf, arithmetic mean, male koalas (n = 3), single oral 5 mg/kg) was 2160 ng·h/mL and the AUC(0-inf) (male, AUC 0-inf, harmonic mean, male koalas (n = 3), single oral 5 mg/kg) was 2010 ng·h/mL. It also gave an AUC(0-t) [15] of 2160 ng·h/mL, an AUC(0-t) [16] of 1520 ng·h/mL and an AUC(0-t) [17] of 1930 ng·h/mL. It also gave an AUC(0-t) [18] of 1870 ng·h/mL, an AUC(0-t) [19] of 1830 ng·h/mL and a Cmax [15] of 191 ng/mL. The Cmax [16] was 210 ng/mL, the Cmax [17] was 263 ng/mL and the Cmax [18] was 221 ng/mL. It also gave a Cmax [19] of 217 ng/mL, a Cmax (male, median value, male koalas, PO 5 mg/kg) of 210 ng/mL and an MRT inf [15] of 19 h. It also gave an MRT inf [16] of 7.13 h, an MRT inf [17] of 6.88 h and an MRT inf [18] of 11.1 h. For the same compound, the MRT inf [19] was 9.01 h, the Tmax [15] was 8 h and the Tmax [16] was 4 h. The Tmax [17] was 4 h, the Tmax [18] was 5.33 h and the Tmax [19] was 4.8 h. It also gave a Vd/F [15] of 277 L, a Vd/F [16] of 152 L and a Vd/F [17] of 113 L. For the same compound, the Vd/F [18] was 181 L, the Vd/F [19] was 158 L and the k el (male, ke (elimination constant), K1 male, single oral 5 mg/kg, slope from 12, 24 h) was 1.39e-05 s⁻¹. For the same compound, the k el (male, ke (elimination constant), K2 male, single oral 5 mg/kg, slope from 4, 8, 12 h) was 5.83e-05 s⁻¹, the k el (male, ke (elimination constant), K3 male, single oral 5 mg/kg, slope from 4, 8, 12 h) was 6.11e-05 s⁻¹ and the k el (male, ke, arithmetic mean, male koalas (n = 3), single oral 5 mg/kg) was 4.44e-05 s⁻¹. It also gave a k el (male, ke, harmonic mean, male koalas (n = 3), single oral 5 mg/kg) of 2.78e-05 s⁻¹, a half-life (male, t1/2 (elimination half-life), K1 male, single oral 5 mg/kg) of 14.7 h and a half-life (male, t1/2 (elimination half-life), K2 male, single oral 5 mg/kg) of 3.31 h. It also gave a half-life (male, t1/2 (elimination half-life), K3 male, single oral 5 mg/kg) of 3.19 h, a half-life (male, t1/2, arithmetic mean, male koalas (n = 3), single oral 5 mg/kg) of 7.06 h and a half-life (male, t1/2, harmonic mean, male koalas (n = 3), single oral 5 mg/kg) of 4.38 h. The half-life (male, t1/2, median value, male koalas, PO 5 mg/kg) was 3.31 h, the AUMC [20] was 12429.4 (8500.1–56998.2) ng/mL*h ^ 2 and the Cl/F [20] was 34.5 (19.0-87.5) L/h. For the same compound, the ka [20] was 0.23 (0.11-0.43) 1/h and the “time after which firocoxib could be detected in the plasma of all koalas” value (single oral 5 mg/kg) was 15 min.
